In ChEMBL document CHEMBL4382229, “Benzofuran derivatives and their anti-tubercular, anti-bacterial activities” (Eur J Med Chem, 2019):
Values after ≈ are worked out from the molar mass of the structure shown.

Tests used:
[1] = target: DNA gyrase subunit A/DNA gyrase subunit B (Mycobacterium tuberculosis (strain ATCC 25618 / H37Rv), UniProt P9WG45+P9WG47); test: Inhibition of Mycobacterium tuberculosis H37Rv DNA gyrase A/B expressed in Escherichia coli assessed as reduction in supercoiling of relaxed pBR322 DNA substrate measured after 60 mins by ethidium bromide staining based agarose gel electrophoresis method
Chain of DNA gyrase subunit A/DNA gyrase subunit B (P9WG45 whole entry, the tested form may be a part): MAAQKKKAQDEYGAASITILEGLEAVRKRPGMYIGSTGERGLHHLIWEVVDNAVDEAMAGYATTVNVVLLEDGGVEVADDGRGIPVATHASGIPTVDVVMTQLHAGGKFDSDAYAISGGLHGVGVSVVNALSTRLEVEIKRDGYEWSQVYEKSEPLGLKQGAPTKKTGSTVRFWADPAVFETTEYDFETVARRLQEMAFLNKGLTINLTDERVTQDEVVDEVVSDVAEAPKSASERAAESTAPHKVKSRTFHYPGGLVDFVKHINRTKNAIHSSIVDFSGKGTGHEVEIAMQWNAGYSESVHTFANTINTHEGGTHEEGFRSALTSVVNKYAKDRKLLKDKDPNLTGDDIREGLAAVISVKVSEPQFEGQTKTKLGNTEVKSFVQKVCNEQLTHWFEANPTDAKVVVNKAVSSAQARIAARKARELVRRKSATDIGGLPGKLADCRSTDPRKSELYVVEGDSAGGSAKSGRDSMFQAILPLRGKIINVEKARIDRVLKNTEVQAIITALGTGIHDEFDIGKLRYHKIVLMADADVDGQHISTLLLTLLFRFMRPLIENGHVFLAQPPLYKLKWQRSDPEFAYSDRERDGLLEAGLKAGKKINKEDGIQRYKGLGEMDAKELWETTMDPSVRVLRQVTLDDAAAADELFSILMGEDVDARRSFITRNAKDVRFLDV
Chain of DNA gyrase subunit A/DNA gyrase subunit B (P9WG47 whole entry, the tested form may be a part): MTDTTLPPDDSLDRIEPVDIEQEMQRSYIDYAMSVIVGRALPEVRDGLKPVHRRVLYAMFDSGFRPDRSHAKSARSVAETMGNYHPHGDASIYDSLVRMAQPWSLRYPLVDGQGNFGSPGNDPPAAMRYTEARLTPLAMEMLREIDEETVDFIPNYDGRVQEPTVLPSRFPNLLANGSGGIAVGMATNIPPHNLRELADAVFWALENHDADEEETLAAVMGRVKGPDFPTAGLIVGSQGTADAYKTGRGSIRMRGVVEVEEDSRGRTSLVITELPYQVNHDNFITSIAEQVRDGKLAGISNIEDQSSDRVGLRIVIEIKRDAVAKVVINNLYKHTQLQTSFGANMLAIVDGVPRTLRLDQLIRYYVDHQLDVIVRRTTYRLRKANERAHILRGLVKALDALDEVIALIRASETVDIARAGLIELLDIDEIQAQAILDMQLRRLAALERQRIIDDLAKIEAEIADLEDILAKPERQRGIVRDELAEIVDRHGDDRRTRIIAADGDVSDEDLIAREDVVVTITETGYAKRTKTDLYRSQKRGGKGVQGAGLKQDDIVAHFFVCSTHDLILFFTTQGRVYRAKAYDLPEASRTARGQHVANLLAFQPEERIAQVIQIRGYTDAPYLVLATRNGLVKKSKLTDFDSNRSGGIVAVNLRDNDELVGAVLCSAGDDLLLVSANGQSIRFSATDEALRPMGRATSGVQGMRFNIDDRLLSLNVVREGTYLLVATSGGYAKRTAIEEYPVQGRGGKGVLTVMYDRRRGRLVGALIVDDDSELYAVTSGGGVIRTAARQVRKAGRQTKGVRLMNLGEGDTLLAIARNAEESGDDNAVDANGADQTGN

Escherichia coli [2] = test: Antibacterial activity against Escherichia coli MTCC 443 assessed as zone of inhibition at 100 ug/ml by disc diffusion method; type: functional; conditions: read-out: IZ
Streptococcus pyogenes = test: Antibacterial activity against Streptococcus pyogenes MTCC 442 assessed as zone of inhibition at 100 ug/ml by disc diffusion method; type: functional; conditions: read-out: IZ
Staphylococcus aureus [3] = test: Antibacterial activity against Staphylococcus aureus MTCC 96 assessed as zone of inhibition at 100 ug/ml by disc diffusion method; type: functional; conditions: read-out: IZ
Pseudomonas aeruginosa [4] = test: Antibacterial activity against Pseudomonas aeruginosa MTCC 424 assessed as zone of inhibition at 100 ug/ml by disc diffusion method; type: functional; conditions: read-out: IZ
Pseudomonas aeruginosa [5] = test: Antibacterial activity against Pseudomonas aeruginosa by broth dilution method; type: functional
Escherichia coli [6] = test: Antibacterial activity against Escherichia coli by broth dilution method; type: functional
Bacillus spizizenii = test: Antibacterial activity against Bacillus subtilis ATCC 6633 after 24 hrs by broth dilution method; type: functional; conditions: ATCC 6633, 24 h
Staphylococcus aureus [7] = test: Antibacterial activity against Staphylococcus aureus ATCC 29213 after 24 hrs by broth dilution method; type: functional; conditions: ATCC 29213, 24 h
Proteus vulgaris = test: Antibacterial activity against Proteus vulgaris […] after 24 hrs by broth dilution method; type: functional
Escherichia coli [8] = test: Antibacterial activity against Escherichia coli ATCC 11229 after 24 hrs by broth dilution method; type: functional; conditions: ATCC 11229, 24 h
Escherichia coli [9] = test: Antibacterial activity against Escherichia coli assessed as zone of inhibition at 1 mg/ml after 32 hrs by agar-well diffusion method; type: functional; conditions: read-out: IZ
Staphylococcus aureus [10] = test: Antibacterial activity against Staphylococcus aureus assessed as zone of inhibition at 1 mg/ml after 32 hrs by agar-well diffusion method; type: functional; conditions: read-out: IZ
Pseudomonas aeruginosa [11] = test: Antibacterial activity against Pseudomonas aeruginosa assessed as zone of inhibition at 1 mg/ml after 32 hrs by agar-well diffusion method; type: functional; conditions: read-out: IZ
Klebsiella pneumoniae = test: Antibacterial activity against Klebsiella pneumoniae assessed as zone of inhibition at 1 mg/ml after 32 hrs by agar-well diffusion method; type: functional; conditions: read-out: IZ

Row | Structure (SMILES) | zone of inhibition at 100 µg/mL (Escherichia coli [2]) | zone of inhibition at 100 µg/mL (Streptococcus pyogenes) | zone of inhibition at 100 µg/mL (Staphylococcus aureus [3]) | zone of inhibition at 100 µg/mL (Pseudomonas aeruginosa [4]) | MIC (Pseudomonas aeruginosa [5]) | MIC (Escherichia coli [6]) | further results
1 | O=C1Nc2ccc(Cl)cc2/C1=N/NC(=O)c1cc2ccccc2o1 | – | – | – | – | – | – | IC50 [1]: 50 to 200 µM
2 | Cc1cc(NC(=O)c2ccccc2)c2oc(COC(=O)NCc3ccccc3)cc2c1 | 11 to 28 mm | 11 to 28 mm | 11 to 28 mm | 11 to 28 mm | – | – | –
3 | O=C1Nc2ccc([N+](=O)[O-])cc2/C1=N/NC(=O)c1cc2ccccc2o1 | – | – | – | – | – | – | IC50 [1]: 50 to 200 µM
4 | Cc1ccc2occ(-c3cc4cc(Br)ccc4oc3=O)c2c1 | – | – | – | – | 6.25 to 100 µg/mL (≈ 17.6 to 282 µM) | 6.25 to 100 µg/mL (≈ 17.6 to 282 µM) | –
5 | COc1ccc(S(=O)(=O)Nc2cc(C)cc3cc(COC(=O)NCc4ccccc4)oc23)cc1 | 19 to 28 mm | 19 to 28 mm | 19 to 28 mm | 19 to 28 mm | – | – | –
6 | O=C(N/N=C1\C(=O)N(c2ccccc2)c2ccccc21)c1cc2ccccc2o1 | – | – | – | – | – | – | IC50 [1]: 50 to 200 µM
7 | Cc1ccc2c(c1)/C(=N/NC(=O)c1cc3ccccc3o1)C(=O)N2 | – | – | – | – | – | – | IC50 [1]: 50 to 200 µM
8 | O=c1oc2ccc(Br)cc2cc1-c1coc2c1ccc1ccccc12 | – | – | – | – | 6.25 to 100 µg/mL (≈ 16 to 256 µM) | 6.25 to 100 µg/mL (≈ 16 to 256 µM) | –
9 | COc1ccc(-c2nn(-c3ccccc3)cc2/C=C/c2oc3c4c(ccc3c2C(=O)c2ccc(Br)cc2)OCC=C4)cc1 | – | – | – | – | – | – | MIC (Bacillus spizizenii): 3.1 to 6.3 µg/mL (≈ 4.92 to 10 µM); MIC (Staphylococcus aureus [7]): 3.1 to 6.3 µg/mL (≈ 4.92 to 10 µM); MIC (Proteus vulgaris): 3.1 to 6.3 µg/mL (≈ 4.92 to 10 µM); MIC (Escherichia coli [8]): 3.1 to 6.3 µg/mL (≈ 4.92 to 10 µM)
10 | COc1ccc2occ(-c3cc4cc(Br)ccc4oc3=O)c2c1 | – | – | – | – | 6.25 to 100 µg/mL (≈ 16.8 to 269 µM) | 6.25 to 100 µg/mL (≈ 16.8 to 269 µM) | –
11 | Cc1cc(NS(=O)(=O)c2cccs2)c2oc(COC(=O)NCc3ccccc3)cc2c1 | 11 to 28 mm | 11 to 28 mm | 11 to 28 mm | 11 to 28 mm | – | – | –
12 | CC(=O)Nc1cc(C)cc2cc(COC(=O)NCc3ccccc3)oc12 | 11 to 28 mm | 11 to 28 mm | 11 to 28 mm | 11 to 28 mm | – | – | –
13 | Cc1cc(NS(=O)(=O)c2ccc(Cl)cc2)c2oc(COC(=O)NCc3ccccc3)cc2c1 | 11 to 28 mm | 11 to 28 mm | 11 to 28 mm | 11 to 28 mm | – | – | –
14 | O=c1oc2ccccc2cc1-c1coc2ccc3ccccc3c12 | – | – | – | – | 6.25 to 100 µg/mL (≈ 20 to 320 µM) | 6.25 to 100 µg/mL (≈ 20 to 320 µM) | –
15 | Cc1ccc(S(=O)(=O)Nc2cc(C)cc3cc(COC(=O)NCc4ccccc4)oc23)cc1 | 11 to 28 mm | 11 to 28 mm | 11 to 28 mm | 11 to 28 mm | – | – | –
16 | Cc1cc(NS(C)(=O)=O)c2oc(COC(=O)NCc3ccccc3)cc2c1 | 19 to 28 mm | 19 to 28 mm | 19 to 28 mm | 19 to 28 mm | – | – | –
17 | Cc1cc(NS(=O)(=O)c2ccccc2)c2oc(COC(=O)NCc3ccccc3)cc2c1 | 11 to 28 mm | 11 to 28 mm | 11 to 28 mm | 11 to 28 mm | – | – | –
18 | Cc1ccc2c(-c3cc4cc(Br)ccc4oc3=O)coc2c1 | – | – | – | – | 6.25 to 100 µg/mL (≈ 17.6 to 282 µM) | 6.25 to 100 µg/mL (≈ 17.6 to 282 µM) | –
19 | Cc1ccc2c(-c3cc4ccccc4oc3=O)coc2c1 | – | – | – | – | 6.25 to 100 µg/mL (≈ 22.6 to 362 µM) | 6.25 to 100 µg/mL (≈ 22.6 to 362 µM) | –
20 | c1ccc2oc(-c3cn4c(-c5cc6ccccc6o5)csc4n3)cc2c1 | – | – | – | – | – | – | zone of inhibition at 1000 µg/mL (Escherichia coli [9]): 6 to 23 mm; zone of inhibition at 1000 µg/mL (Staphylococcus aureus [10]): 6 to 23 mm; zone of inhibition at 1000 µg/mL (Pseudomonas aeruginosa [11]): 6 to 23 mm; zone of inhibition at 1000 µg/mL (Klebsiella pneumoniae): 6 to 23 mm
21 | COc1ccc2occ(-c3cc4ccccc4oc3=O)c2c1 | – | – | – | – | 6.25 to 100 µg/mL (≈ 21.4 to 342 µM) | 6.25 to 100 µg/mL (≈ 21.4 to 342 µM) | –
22 | CCOc1ccc(-c2nn(-c3ccccc3)cc2/C=C/c2oc3c4c(ccc3c2C(=O)c2ccc(Br)cc2)OCC=C4)cc1 | – | – | – | – | – | – | MIC (Bacillus spizizenii): 6.3 to 25 µg/mL (≈ 9.79 to 38.8 µM); MIC (Staphylococcus aureus [7]): 6.3 to 25 µg/mL (≈ 9.79 to 38.8 µM); MIC (Proteus vulgaris): 6.3 to 25 µg/mL (≈ 9.79 to 38.8 µM); MIC (Escherichia coli [8]): 6.3 to 25 µg/mL (≈ 9.79 to 38.8 µM)
23 | O=c1oc2ccccc2cc1-c1coc2c1ccc1ccccc12 | – | – | – | – | 6.25 to 100 µg/mL (≈ 20 to 320 µM) | 6.25 to 100 µg/mL (≈ 20 to 320 µM) | –
24 | COc1ccc(-c2nn(-c3ccccc3)cc2/C=C/c2oc3c4c(ccc3c2C(=O)c2ccc(Br)cc2)OCC=C4)cc1OC | – | – | – | – | – | – | MIC (Bacillus spizizenii): 1.6 to 3.1 µg/mL (≈ 2.43 to 4.7 µM); MIC (Staphylococcus aureus [7]): 1.6 to 3.1 µg/mL (≈ 2.43 to 4.7 µM); MIC (Proteus vulgaris): 1.6 to 3.1 µg/mL (≈ 2.43 to 4.7 µM); MIC (Escherichia coli [8]): 1.6 to 3.1 µg/mL (≈ 2.43 to 4.7 µM)
25 | O=c1oc2ccc(Br)cc2cc1-c1coc2ccc3ccccc3c12 | – | – | – | – | 6.25 to 100 µg/mL (≈ 16 to 256 µM) | 6.25 to 100 µg/mL (≈ 16 to 256 µM) | –
26 | O=C1Nc2ccc(F)cc2/C1=N/NC(=O)c1cc2cc([N+](=O)[O-])ccc2o1 | – | – | – | – | – | – | IC50 [1]: 50 to 200 µM
